Measurements from ChEMBL document CHEMBL6182889, “Discovery of the first-in-class DOT1L PROTAC degrader” (Eur J Med Chem, 2025).
Activity calls are given as the source filed them. No cut-off for these calls is given here.

Tests used:
[1] = target: T1, von Hippel-Lindau disease tumor suppressor/Histone-lysine N-methyltransferase, H3 lysine-79 specific (Homo sapiens, UniProt Q8TEK3+P40337); experiment: PROTAC activity at VHL/DOT1L in mixed-lineage leukemia rearranged (MLL-r) human MV4-11 cells assessed as induction of DOTIL degradation by measuring fold change in H3K79Me2 level at 3 uM incubated for 4 hrs by western blot analysis relative to control; type: cell-based
[2] = target: DNA (cytosine-5)-methyltransferase 3B (Homo sapiens) (UniProt Q9UBC3); experiment: Inhibition of human full length DNMT3b using lambda DNA and SAM as substrate at 10 uM by radiometric Hotspot assay
[3] = target: T1, von Hippel-Lindau disease tumor suppressor/Histone-lysine N-methyltransferase, H3 lysine-79 specific; experiment: PROTAC activity at VHL/DOT1L in mixed-lineage leukemia rearranged (MLL-r) human MV4-11 cells assessed as induction of DOTIL degradation by measuring fold change in DOT1L protein level at 3 uM incubated for 8 hrs by western blot analysis relative to control; type: cell-based
[4] = target: T1, von Hippel-Lindau disease tumor suppressor/Histone-lysine N-methyltransferase, H3 lysine-79 specific; experiment: PROTAC activity at VHL/DOT1L in mixed-lineage leukemia rearranged (MLL-r) human THP-1 cells assessed as induction of DOT1L degradation at 3 uM co-incubated with VHL ligand for 24 hrs by western blot analysis; type: cell-based
[5] = target: T1, von Hippel-Lindau disease tumor suppressor/Histone-lysine N-methyltransferase, H3 lysine-79 specific; experiment: PROTAC activity at VHL/DOT1L in mixed-lineage leukemia rearranged (MLL-r) human THP-1 cells assessed as induction of DOTIL degradation by measuring fold change in H3K79Me2 level at 3 uM incubated for 2 hrs by western blot analysis relative to control; type: cell-based
MOLM-13 = experiment: Effect on DOT1L mRNA expression in mixed-lineage leukemia rearranged (MLL-r) human MOLM-13 cells at 3 uM incubated for 24 hrs by RT-qPCR analysis; type: functional, cell-based
[6] = target: T1, von Hippel-Lindau disease tumor suppressor/Histone-lysine N-methyltransferase, H3 lysine-79 specific; experiment: PROTAC activity at VHL/DOT1L in mixed-lineage leukemia rearranged (MLL-r) human THP-1 cells assessed as maximal induction of DOT1L degradation incubated for 24 hrs by western blot analysis relative to control; type: cell-based
[7] = target: T2, Histone-arginine methyltransferase CARM1 (Homo sapiens) (UniProt Q86X55); experiment: Inhibition of human PRMT4 using histone H3 and SAM as substrate at 10 uM by radiometric Hotspot assay
T2 sequence (whole entry): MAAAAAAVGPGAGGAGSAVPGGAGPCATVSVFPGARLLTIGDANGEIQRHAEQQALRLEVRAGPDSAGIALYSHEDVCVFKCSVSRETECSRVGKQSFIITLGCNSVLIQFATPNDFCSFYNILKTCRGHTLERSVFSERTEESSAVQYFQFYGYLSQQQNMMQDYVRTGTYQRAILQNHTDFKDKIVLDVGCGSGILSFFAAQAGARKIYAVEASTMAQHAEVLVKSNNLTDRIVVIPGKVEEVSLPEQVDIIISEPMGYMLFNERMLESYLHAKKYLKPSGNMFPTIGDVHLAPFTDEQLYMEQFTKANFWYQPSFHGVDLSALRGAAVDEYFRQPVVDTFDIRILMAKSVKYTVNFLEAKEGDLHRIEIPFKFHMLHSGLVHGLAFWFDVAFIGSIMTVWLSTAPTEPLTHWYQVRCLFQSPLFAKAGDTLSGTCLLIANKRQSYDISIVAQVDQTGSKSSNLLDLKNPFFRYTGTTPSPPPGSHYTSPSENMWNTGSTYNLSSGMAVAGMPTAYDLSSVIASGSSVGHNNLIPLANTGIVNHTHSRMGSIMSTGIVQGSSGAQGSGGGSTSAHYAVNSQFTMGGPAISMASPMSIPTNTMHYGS

[8] = target: T1, von Hippel-Lindau disease tumor suppressor/Histone-lysine N-methyltransferase, H3 lysine-79 specific; experiment: PROTAC activity at VHL/DOT1L in mixed-lineage leukemia rearranged (MLL-r) human THP-1 cells assessed as induction of DOTIL degradation by measuring fold change in DOT1L protein level at 3 uM incubated for 8 hrs by western blot analysis relative to control; type: cell-based

T1 sequence (P40337 whole entry, looked up): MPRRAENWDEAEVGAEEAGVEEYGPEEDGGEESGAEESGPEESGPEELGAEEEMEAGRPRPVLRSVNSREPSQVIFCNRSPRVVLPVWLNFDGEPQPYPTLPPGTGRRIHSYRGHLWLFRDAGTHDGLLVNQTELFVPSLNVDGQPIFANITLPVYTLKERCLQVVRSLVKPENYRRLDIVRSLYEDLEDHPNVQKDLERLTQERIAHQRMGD
T1 sequence (Q8TEK3 whole entry, looked up): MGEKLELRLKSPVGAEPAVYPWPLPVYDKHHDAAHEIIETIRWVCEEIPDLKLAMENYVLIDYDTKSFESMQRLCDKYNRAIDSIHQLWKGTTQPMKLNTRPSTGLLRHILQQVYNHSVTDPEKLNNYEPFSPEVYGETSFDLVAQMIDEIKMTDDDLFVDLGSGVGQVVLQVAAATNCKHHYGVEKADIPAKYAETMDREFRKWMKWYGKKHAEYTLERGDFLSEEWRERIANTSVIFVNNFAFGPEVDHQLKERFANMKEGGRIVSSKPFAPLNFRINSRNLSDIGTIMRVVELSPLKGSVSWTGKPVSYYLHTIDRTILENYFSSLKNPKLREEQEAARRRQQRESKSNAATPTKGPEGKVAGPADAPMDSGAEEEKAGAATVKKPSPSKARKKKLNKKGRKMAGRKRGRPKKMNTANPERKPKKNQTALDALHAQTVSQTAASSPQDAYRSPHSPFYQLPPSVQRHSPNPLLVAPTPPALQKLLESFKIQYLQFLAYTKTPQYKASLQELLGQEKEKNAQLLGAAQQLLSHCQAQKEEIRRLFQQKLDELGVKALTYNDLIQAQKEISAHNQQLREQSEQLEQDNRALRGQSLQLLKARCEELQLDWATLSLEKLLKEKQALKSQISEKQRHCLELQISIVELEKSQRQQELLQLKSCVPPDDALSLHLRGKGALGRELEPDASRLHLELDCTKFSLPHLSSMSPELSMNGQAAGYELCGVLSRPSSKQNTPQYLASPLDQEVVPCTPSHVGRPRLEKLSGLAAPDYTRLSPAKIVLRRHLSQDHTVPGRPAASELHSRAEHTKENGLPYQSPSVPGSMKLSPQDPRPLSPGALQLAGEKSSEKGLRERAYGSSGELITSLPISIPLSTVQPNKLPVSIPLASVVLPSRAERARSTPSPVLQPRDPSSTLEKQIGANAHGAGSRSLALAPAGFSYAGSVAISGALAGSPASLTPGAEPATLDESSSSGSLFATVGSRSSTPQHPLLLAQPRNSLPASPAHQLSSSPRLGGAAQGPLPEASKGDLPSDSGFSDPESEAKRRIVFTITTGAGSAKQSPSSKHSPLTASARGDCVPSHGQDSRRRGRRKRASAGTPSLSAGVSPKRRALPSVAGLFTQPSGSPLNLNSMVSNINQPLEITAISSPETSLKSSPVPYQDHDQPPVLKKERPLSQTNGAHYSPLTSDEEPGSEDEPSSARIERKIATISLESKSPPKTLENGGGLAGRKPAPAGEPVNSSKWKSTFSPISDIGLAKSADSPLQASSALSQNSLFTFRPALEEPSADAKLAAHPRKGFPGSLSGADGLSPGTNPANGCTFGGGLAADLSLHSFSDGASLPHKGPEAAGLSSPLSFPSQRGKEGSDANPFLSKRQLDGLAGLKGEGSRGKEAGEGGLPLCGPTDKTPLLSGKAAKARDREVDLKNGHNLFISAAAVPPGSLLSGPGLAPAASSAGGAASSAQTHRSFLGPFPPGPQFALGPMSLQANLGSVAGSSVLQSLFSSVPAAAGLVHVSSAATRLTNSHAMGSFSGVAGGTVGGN

`Cc1ncsc1-c1ccc([C@H](CC(=O)NCCCCCCNC(=O)COc2nc(N)nc(Nc3cc(S(N)(=O)=O)ccc3N[C@@H](c3cccc4c3OC(F)(F)O4)c3ncccc3Cl)n2)NC(=O)[C@@H]2C[C@@H](O)CN2C(=O)[C@@H](NC(=O)C2(F)CC2)C(C)(C)C)cc1` was tested, and the fold change (FC) [1] was 0.32, the inhibition [2] was “inactive” and the fold change (FC) [3] was 0.15. The Activity [4] was “inactive”, the fold change (FC) [5] was 0.97 and the Activity (MOLM-13) was “inactive”. For the same molecule, the Activity [6] was 69%, the inhibition [7] was “inactive” and the fold change (FC) [8] was 0.29.
